Data as given in patent US9833497B2, “Human originated EGF domain proteins and use of the same” (CHENGDU SOURCEBIO LIMITED-LIABILITY COMPANY, priority 2013, dated 2017).

Experiments:
Assay type in all cases: cell-based
[1] = system: Aeromonas hydrophila; assay: MIC against Gram-negative bacteria: Aeromonas hydrophila; conditions: 96-well plate, 5×10^5 CFU/mL, 37° C., 10 h
Method in brief: (§1)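 The recombinant human-originated EGF domain proteins were serially diluted two-fold against bacteria at 5×10^5 CFU/mL in LB medium. After shaken incubation at 37° C, the lowest concentration with no bacterial growth was recorded as the MIC.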

[2] = system: Klebsiella pneumonia; assay: MIC against Gram-negative bacteria: Klebsiella pneumonia; conditions: 96-well plate, 5×10^5 CFU/mL, 37° C., 10 h
Method in brief: as §1

[3] = system: Serratia marcescens; assay: MIC against Gram-negative bacteria: Serratia marcescens; conditions: 96-well plate, 5×10^5 CFU/mL, 37° C., 10 h
Method in brief: as §1

[4] = system: Proteus vulgaris; assay: MIC against Gram-negative bacteria: Proteus vulgaris; conditions: 96-well plate, 5×10^5 CFU/mL, 37° C., 10 h
Method in brief: as §1

[5] = system: Moraxella catarrhalis; assay: MIC against Gram-negative bacteria: Moraxella catarrhalis; conditions: 96-well plate, 5×10^5 CFU/mL, 37° C., 10 h
Method in brief: as §1

[6] = system: Proteus mirabilis; assay: MIC against Gram-negative bacteria: Proteus mirabilis; conditions: 96-well plate, 5×10^5 CFU/mL, 37° C., 10 h
Method in brief: as §1

[7] = system: E. coli DH5α; assay: Antibacterial activity: MIC and growth curve against E. coli DH5α in 96-well plate; conditions: minimal inhibitory concentration against E. coli DH5α; 96-well plate, 5×10^5 CFU/mL, 37° C., judged after 8 h
Method in brief: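 Log-phase DH5α (OD600 about 0.5, 37° C, 185 rpm in LB) was pelleted, resuspended in fresh LB and seeded at 5×10^5 CFU/mL with recombinant protein at 50, 25 and 12.5 μg/mL (two-fold series), in triplicate. Plates were shaken at 175 rpm, 37° C, and OD600 was read every 30 min. MIC was the lowest concentration with no growth.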

[8] = system: Pseudomonas aeruginosa; assay: MIC against Gram-negative bacteria: Pseudomonas aeruginosa; conditions: 96-well plate, 5×10^5 CFU/mL, 37° C., 10 h
Method in brief: as §1

[9] = system: Enterobacter cloacae; assay: MIC against Gram-negative bacteria: Enterobacter cloacae; conditions: 96-well plate, 5×10^5 CFU/mL, 37° C., 10 h
Method in brief: as §1

[10] = system: Citrobacter diversus; assay: MIC against Gram-negative bacteria: Citrobacter diversus; conditions: 96-well plate, 5×10^5 CFU/mL, 37° C., 10 h
Method in brief: as §1

[11] = system: E. coli BL21; assay: MIC against Gram-negative bacteria: E. coli BL21; conditions: 96-well plate, 5×10^5 CFU/mL, 37° C., 10 h
Method in brief: as §1

| Substance | MIC A. hydrophila [1] [µg/mL] | MIC K. pneumonia [2] [µg/mL] | MIC S. marcescens [3] [µg/mL] | MIC P. vulgaris [4] [µg/mL] | MIC M. catarrhalis [5] [µg/mL] | MIC P. mirabilis [6] [µg/mL] | MIC [7] [µg/mL] | MIC P. aeruginosa [8] [µg/mL] | MIC E. cloacae [9] [µg/mL] | MIC C. diversus [10] [µg/mL] | MIC E. coli BL21 [11] [µg/mL] |
| --- | --- | --- | --- | --- | --- | --- | --- | --- | --- | --- | --- |
| PRT689 (DNDECADEEPACEGGRCVNTVGSYHCTCEPPLVLDGSQRRCV; listed as Homo sapiens) | 50 | 12.5 | 25 | 12.5 | 50 | 25 | 100 | 50 | 25 | 12.5 | 25 |
| PRT690 (EAEECGILDGCTNGRCVRVPEGFTCRCFDGYRLDMTRMACV; listed as Homo sapiens) | 25 | 25 | 12.5 | 50 | 50 | 12.5 | 25 | 25 | 12.5 | 25 | 50 |
| PRT691 (DINECDEAEAASPLCVNARCLNTDGSFRCICRPGFAPTHQPHHCA; listed as Homo sapiens) | 12.5 | 50 | 12.5 | 50 | 12.5 | 25 | 25 | 12.5 | 25 | 50 | 50 |
| PRT692 (DVDECATGGRCQHGECANTRGGYTCVCPDGFLLDSSRSSCI; listed as Homo sapiens) | 12.5 | 50 | 50 | 25 | 25 | 12.5 | 50 | 12.5 | 25 | 50 | 25 |
| PRT693 (SSGMCQRNPQVCGPGRCISRPSGYTCACDSGFRLSPQGTRCI; listed as Homo sapiens) | 25 | 25 | 50 | 50 | 12.5 | 25 | 25 | 50 | 12.5 | 50 | 12.5 |
| PRT694 (DVDECRRVPPPCAPGRCENSPGSFRCVCGPGFRAGPRAAECL; listed as Homo sapiens) | 25 | 25 | 50 | 12.5 | 25 | 50 | 50 | 50 | 50 | 12.5 | 25 |
| PRT695 (DVDECHRVPPPCDLGRCENTPGSFLCVCPAGYQAAPHGASCQ; listed as Homo sapiens) | 25 | 25 | 12.5 | 50 | 50 | 12.5 | 25 | 25 | 12.5 | 50 | 12.5 |
| PRT696 (DVDECTQSPGLCGRGACKNLPGSFRCVCPAGFRGSACE; listed as Homo sapiens) | 12.5 | 50 | 12.5 | 25 | 25 | 50 | 50 | 12.5 | 25 | 25 | 25 |
| PRT697 (DVDECAQEPPPCGPGRCDNTAGSFHCACPAGFRSRGPGAPCQ; listed as Homo sapiens) | 25 | 12.5 | 25 | 25 | 50 | 12.5 | 25 | 50 | 50 | 12.5 | 25 |
